# Target: T1, KRAS G12C 1-169, his-tagged protein, GDP-loaded (Homo sapiens, UniProt P01116, G12C)
# T1 construct: KRAS G12C 1-169, his-tagged protein, GDP-loaded
# Experiment: Biochemical assay: covalent modification of KRAS G12C measured by mass spectrometry (RapidFire/TOF or Q-Exactive); note: time not given here
# Format: binding
# Conditions: tested at 32 μM
# Summary of the method: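 GDP-loaded KRAS G12C 1-169 (his-tagged, 2 μM or 0.5 μM in 20 mM Hepes, 150 mM NaCl, 1 mM MgCl2) reacted with compound at 32 μM or 8 μM final, then quenched with formic acid. Intact-protein LC-MS (RapidFire/TOF or Q-Exactive) with charge-envelope deconvolution; % modification from modified vs unmodified peak intensities.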
row,SMILES,Bind %
1,"C=CC(=O)N1CC2(CCN(c3cc(OC[C@H]4CCCN4C)c(F)c(-c4c(C)ccc5[nH]ncc45)c3C#N)CC2)C1 [Compound I-127, 6-(2-acryloyl-2,7-diazaspiro[3.5]nonan-7-yl)-3-fluoro-2-(5-methyl-1H-indazol-4-yl)-4-(((R)-1-methylpyrrolidin-2-yl)methoxy) benzonitrile]",++ (++ indicates binding activity from 50 to 75%)
2,"C=CC(=O)N1CC2(CCN(c3cc(OC[C@@H]4CCCN4C)c(F)c(-c4c(C)ccc5[nH]ncc45)c3C#N)CC2)C1 [Compound I-128, 6-(2-acryloyl-2,7-diazaspiro[3.5]nonan-7-yl)-3-fluoro-2-(5-methyl-1H-indazol-4-yl)-4-(((S)-1-methylpyrrolidin-2-yl)methoxy) benzonitrile]",+ (+ indicates binding activity greater than 0% and up to 50%)
3,"C=CC(=O)N1CC2(CCN(c3ccc(OCC(F)(F)F)c(-c4c(C)ccc5[nH]ncc45)c3C#N)CC2)C1 [Compound I-130, 6-(2-acryloyl-2,7-diazaspiro[3.5]nonan-7-yl)-2-(5-methyl-1H-indazol-4-yl)-3-(2,2,2-trifluoroethoxy) benzonitrile]",+ (+ indicates binding activity greater than 0% and up to 50%)
4,"C=CC(=O)N1CC2(CCN(c3cc(N(C)CCN4CCCC4)c(F)c(-c4c(C)ccc5[nH]ncc45)c3C#N)CC2)C1 [Compound I-131, 6-(2-acryloyl-2,7-diazaspiro[3.5]nonan-7-yl)-3-fluoro-4-(methyl(2-(pyrrolidin-1-yl)ethyl)amino)-2-(5-methyl-1H-indazol-4-yl)benzonitrile]",+ (+ indicates binding activity greater than 0% and up to 50%)
5,"C=CC(=O)N1CC2(CCN(c3cc(OC)c(Cl)c(-c4c(C)ccc5[nH]ncc45)c3C#N)CC2)C1 [Compound I-132, 6-(2-acryloyl-2,7-diazaspiro[3.5]nonan-7-yl)-3-chloro-4-methoxy-2-(5-methyl-1H-indazol-4-yl)benzonitrile]",+ (+ indicates binding activity greater than 0% and up to 50%)
6,"C=CC(=O)N1CC2(CCN(c3cc(NCCc4ccccn4)c(F)c(-c4c(C)ccc5[nH]ncc45)c3C#N)CC2)C1 [Compound I-133, 6-(2-acryloyl-2,7-diazaspiro[3.5]nonan-7-yl)-3-fluoro-2-(5-methyl-1H-indazol-4-yl)-4-((2-(pyridin-2-yl)ethyl)amino) benzonitrile]",+ (+ indicates binding activity greater than 0% and up to 50%)
7,"C=CC(=O)N1CC2(CCN(c3cc(OCCN4CCCC4)c(F)c(-c4c(C)ccc5[nH]ncc45)c3C#N)CC2)C1 [Compound I-135, 6-(2-acryloyl-2,7-diazaspiro[3.5]nonan-7-yl)-3-fluoro-2-(5-methyl-1H-indazol-4-yl)-4-(2-(pyrrolidin-1-yl)ethoxy) benzonitrile]",+ (+ indicates binding activity greater than 0% and up to 50%)
8,"C=CC(=O)N1CC2(CCN(c3cccc(-c4c(C)ccc5[nH]ncc45)c3C#N)C2)C1CC (centres unmarked) [Compound I-137, 2-(2-acryloyl-1-ethyl-2,6-diazaspiro[3.4]octan-6-yl)-6-(5-methyl-1H-indazol-4-yl)benzonitrile]",+ (+ indicates binding activity greater than 0% and up to 50%)
9,C=CC(=O)N1CC2(CCN(c3cc(OCc4ccccn4)cc(-c4c(C)ccc5[nH]ncc45)c3C#N)C2)C1CC (centres unmarked) [Compound I-138],++ (++ indicates binding activity from 50 to 75%)
10,"C=CC(=O)N1CC2(CCN(c3cccc(-c4c(C)ccc5[nH]ncc45)c3C#N)C2)C1C(C)C (centres unmarked) [Compound I-139, 2-(2-acryloyl-1-isopropyl-2,6-diazaspiro[3.4]octan-6-yl)-6-(5-methyl-1H-indazol-4-yl)benzonitrile]",+ (+ indicates binding activity greater than 0% and up to 50%)

# Same assay, conditions: tested at a concentration of 8 μM
row,SMILES,Bind %
1,"C=CC(=O)N1CC2(CCN(c3cccc(-c4c(C)ccc5[nH]ncc45)c3C#N)C2)C1C (centres unmarked) [Compound I-126, 2-(2-acryloyl-1-methyl-2,6-diazaspiro[3.4]octan-6-yl)-6-(5-methyl-1H-indazol-4-yl)benzonitrile]",+ (+ indicates binding activity greater than 0% and up to 50%)
2,"C=CC(=O)N1CC2(CCN(c3cc(OCc4ccccn4)cc(-c4c(C)ccc5[nH]ncc45)c3C#N)C2)C1C (centres unmarked) [Compound I-129, 2-(2-acryloyl-1-methyl-2,6-diazaspiro[3.4]octan-6-yl)-6-(5-methyl-1H-indazol-4-yl)-4-(pyridin-2-ylmethoxy) benzonitrile]",++ (++ indicates binding activity from 50 to 75%)
3,"C=CC(=O)N1CC2(CCN(c3ccc(F)c(-c4c(C)ccc5[nH]ncc45)c3C#N)C2)C1C (centres unmarked) [Compound I-134, 6-(2-acryloyl-1-methyl-2,6-diazaspiro[3.4]octan-6-yl)-3-fluoro-2-(5-methyl-1H-indazol-4-yl)benzonitrile]",++ (++ indicates binding activity from 50 to 75%)
4,"C=CC(=O)N1CC2(CCN(c3cc(N4CCC(CN(C)C)CC4)c(F)c(-c4c(C)ccc5[nH]ncc45)c3C#N)CC2)C1 [Compound I-136, 6-(2-acryloyl-2,7-diazaspiro[3.5]nonan-7-yl)-4-(4-((dimethylamino)methyl)piperidin-1-yl)-3-fluoro-2-(5-methyl-1H-indazol-4-yl)benzonitrile]",+ (+ indicates binding activity greater than 0% and up to 50%)

# Source: patent publication US20210380595A1 (ARAXES PHARMA LLC, priority 2018, published 2021)
